This is an account of results in US9907791B2, “Ron inhibitors for use in preventing and treating bone loss” (UNIVERSITY OF UTAH RESEARCH FOUNDATION, priority 2014, dated 2018).

One assay deals with AKT. Briefly: Western blot of osteoclast lysates, phospho-AKT. The conditions noted are these: osteoclasts. The class given is cell-based, mice. As for the experimental part: (§1) Cells were serum starved (0.5% FBS) for 3 hours prior to lysate collection. Inhibitors were added 1 hour prior to lysis and MSP was added 15 min prior to lysis when indicated. Cells were washed with 1×PBS and harvested in lysis buffer (25 mM Tris-HCl, pH 7.5, 0.42 M NaCl, 1.5 mM MgCl2, 0.5 mM EDTA, 1 mM DTT, 25% sucrose, and 0.1% Triton X-100) plus 100× protease arrest (Bioscience, Bozeman, Mont.) and 100× orthovanadate. Primary antibodies used for immunoblotting include: anti-MSP (Santa Cruz, sc-6090, Dallas, Tex.) at a 1:250 dilution, anti-pan Akt (Cell Signaling, #4691S, Beverly, Mass.) at a 1:1000 dilution, anti-pan Erk (Cell Signaling, #4695, Beverly, Mass.) at a 1:1000 dilution, anti-phospho Akt (Cell Signaling, #9271 L, Beverly, Mass.) at a 1:500 dilution, anti-phospho Erk (Cell Signaling, #4370S, Beverly, Mass.) at a 1:500 dilution, anti-Src (Cell Signaling, #2110, Beverly, Mass.) at a 1:500 dilution, and anti-phospho Src (Y416) (Cell Signaling, #2113, Beverly, Mass.) at a 1:500 dilution. The secondary antibodies used were HRP-conjugated anti-goat IgG (Santa Cruz, Dallas, Tex.) and anti-rabbit IgG (Santa Cruz, Dallas, Tex.). Chemiluminescent signals were detected using Immun-Star HRP (BioRad, Hercules, Calif.).
(A western blot detects proteins with antibodies after separation by electrophoresis.)

Assay [1] can be described thus: Ovariectomy-induced bone loss (osteoporosis study). The class given is in vivo. To be noted: WT OVX mice, treatment from 1 day post-ovariectomy, analysis at 28 days.
Text: Representative samples were imaged by micro-computed tomography (μCT, Skyscan) with volume rendering snapshots of the tibia. For the osteoporosis study, representative samples were imaged and presented as volume rendering snapshots of the axial view of the tibial metaphysis region. For bone mineral density (BMD) measurements, the right tibia was removed and fixed in 10% NBF overnight. The tibia were then scanned by dual-energy X-ray absorptiometry (DXA) using a Norland pDEXA densitometer (Norland Medical Systems, White Plains, N.Y.). A region including the primary and secondary spongiosa was used to determine the BMD of the tibia. […] For the osteoporosis study, mice were treated beginning on the day after ovary removal. The treatment regimen for OSI-296 was 200 mg/kg every other day by oral gavage. ASLAN002 was administered at 50 mg/kg every other day by oral gavage. Treatment continued until the time of sacrifice at 28 days. […] To investigate the role of the MSP/RON pathway in bone loss due to post-menopausal osteoporosis, ovariectomies were performed in WT and RonTK−/− mice and bone loss was analyzed by dual-energy X-ray absorptiometry (DXA) and bone histomorphometry 28 days later. […] WT OVX mice were treated with ASLAN002 beginning 1 day post-ovariectomy. Mice were sacrificed 28 days post-ovariectomy for analysis.
A short description of assay [2]: Human plasma BSAP levels, Phase I patients. The format is in vivo. To be noted: change compared to baseline. From the text:
All samples were de-identified and the experiments were approved by the University of Utah Institutional Review Board. Plasma samples were submitted to ARUP for clinical testing of CTX. For BSAP, the Human Bone Panel I capture plate with the Human Alkaline Phosphatase detection kit was utilized (Meso Scale Discovery, Rockville, Md.; […]-2) to measure BSAP levels in undiluted plasma samples per the manufacturer's protocol. ASLAN002 is currently in Phase I testing as an anti-cancer agent (NCT01721148). Regardless of cancer diagnosis, and even in the absence of bone metastasis, RON inhibition might affect normal bone turnover, especially in postmenopausal women due to their high rate of bone loss. […] Shown in FIG. 15A is quantification of the percent change in plasma CTX levels (compared to baseline prior to drug treatment) in blood plasma of patients receiving ASLAN002 in the Phase I clinical trial. […] None of the patients analyzed were treated concurrently with anti-osteoporotic agents. […] Shown in FIG. 15B is quantification of the percent change in BSAP levels (compared to baseline) in blood plasma of patients receiving ASLAN002. […] Note that these patients were not selected based on a diagnosis of bone metastasis; rather, markers of bone turnover in patients with various cancer diagnoses who participated in the Phase I trial of ASLAN002 were simply assessed.

The next assay concerns ERK. Briefly: Western blot of osteoclast lysates, ERK. The class given is cell-based, mice. To be noted: osteoclasts. The method, then:
as §1

Take `CCOc1ccn(-c2ccc(F)cc2)c(=O)c1C(=O)Nc1ccc(Oc2ccnc(N)c2Cl)c(F)c1` [ASLAN002]: the “phosphorylated AKT” value with AKT is reported as “decrease in phosphorylated AKT”. In addition, the “bone loss after ovary removal” value in assay [1] is reported as “completely prevented bone loss”. In addition, the “plasma bone-specific alkaline phosphatase (BSAP) levels” value in assay [2] is “increased plasma BSAP”. For the same compound, the ERK activity entry with ERK was “no effect”.
